In ChEMBL document CHEMBL1201862, “PubChem BioAssay data set” (2004):
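Grown in 96-well plates, cells were treated for 48 hours with each compound at five concentrations. Insufficient inhibition: endpoint recorded as highest concentration tested. GI50: concentration for 50% inhibition of growth.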 Activity calls are given as the source filed them. Cut-off read from the data, not from the text of the source: active = GI50 up to about 1.1 µM and inactive = higher.

Key:
Assay in all cases: NCI anticancer screen, dose series, 48 h
HCT-116 = test system: HCT-116
SK-MEL-28 = test system: SK-MEL-28
SNB-19 = test system: SNB-19
SN12C = test system: SN12C
PC-3 = test system: PC-3
MCF7 = test system: MCF7
OVCAR-5 = test system: OVCAR-5
MOLT-4 = test system: MOLT-4
A498 = test system: A498
CAKI-1 = test system: CAKI-1
OVCAR-4 = test system: OVCAR-4
SK-MEL-2 = test system: SK-MEL-2
SK-MEL-5 = test system: SK-MEL-5
SF-539 = test system: SF-539
ACHN = test system: ACHN
UO-31 = test system: UO-31
SW-620 = test system: SW-620
TK-10 = test system: TK-10
K562 = test system: K562
HT-29 = test system: HT-29

Row | Structure (SMILES) | GI50 (HCT-116) | GI50 (SK-MEL-28) | GI50 (SNB-19) | GI50 (SN12C) | GI50 (PC-3) | GI50 (MCF7) | GI50 (OVCAR-5) | GI50 (MOLT-4) | GI50 (A498) | GI50 (CAKI-1) | GI50 (OVCAR-4) | GI50 (SK-MEL-2) | GI50 (SK-MEL-5) | GI50 (SF-539) | GI50 (ACHN) | GI50 (UO-31) | GI50 (SW-620) | GI50 (TK-10) | GI50 (K562) | GI50 (HT-29)
1 | CN(Cc1ccccc1)Cn1ccnc1 | 39.4 µM (inactive) | 34.1 µM (inactive) | > 100 µM (inactive) | 95.1 µM (inactive) | > 75.9 µM (inactive) | 41 µM (inactive) | > 100 µM (inactive) | 46.5 µM (inactive) | > 91.6 µM (inactive) | > 100 µM (inactive) | > 100 µM (inactive) | > 100 µM (inactive) | 37.9 µM (inactive) | > 100 µM (inactive) | > 100 µM (inactive) | 54.7 µM (inactive) | > 100 µM (inactive) | > 100 µM (inactive) | 34.7 µM (inactive) | 29 µM (inactive)
2 | COc1cc(C2c3cc4c(cc3CC3COC(=O)N32)OCO4)cc(OC)c1OC (stereo not given) | 2.72 µM (inactive) | 5.05 µM (inactive) | 4.26 µM (inactive) | 4.73 µM (inactive) | 1.99 µM (inactive) | 3.84 µM (inactive) | > 53.1 µM (inactive) | 3.67 µM (inactive) | 6.31 µM (inactive) | 3.65 µM (inactive) | 14.1 µM (inactive) | 6.73 µM (inactive) | 1.96 µM (inactive) | 2.39 µM (inactive) | 12.8 µM (inactive) | 5.33 µM (inactive) | 2.13 µM (inactive) | > 22.9 µM (inactive) | 1.57 µM (inactive) | 2.12 µM (inactive)
3 | O=C(/C=C1\C[C@H]2C=Nc3ccccc3C(=O)N2C1)NCCCCNC(=O)/C=C1\C[C@H]2C=Nc3ccccc3C(=O)N2C1 | 12.3 µM (inactive) | 15.8 µM (inactive) | 16.6 µM (inactive) | 5.05 µM (inactive) | 14.4 µM (inactive) | 12.4 µM (inactive) | 19.2 µM (inactive) | 2.91 µM (inactive) | 18.7 µM (inactive) | 2.77 µM (inactive) | 8.99 µM (inactive) | 15.2 µM (inactive) | 12.8 µM (inactive) | 14.9 µM (inactive) | 3.61 µM (inactive) | 2.39 µM (inactive) | 2.55 µM (inactive) | 10.4 µM (inactive) | 3.11 µM (inactive) | 14.2 µM (inactive)
4 | [O-]c1c2cc(-[n+]3c(-c4ccccc4)cc(-c4ccccc4)cc3-c3ccccc3)cc1CO[C@@H](c1ccccc1)[C@H](c1ccccc1)OCc1cccc(n1)CO[C@@H](c1ccccc1)[C@H](c1ccccc1)OC2 | 0.0286 µM (active) | 0.713 µM (active) | 0.0514 µM (active) | 0.0378 µM (active) | 0.0373 µM (active) | 0.0388 µM (active) | 0.514 µM (active) | 0.0526 µM (active) | 0.867 µM (active) | 0.367 µM (active) | 0.09 µM (active) | 0.0569 µM (active) | 0.0424 µM (active) | 0.371 µM (active) | 0.304 µM (active) | 0.625 µM (active) | 0.0568 µM (active) | 0.594 µM (active) | 0.0293 µM (active) | 0.0318 µM (active)
5 | CCCC(=O)Nc1cc(/C=C/C(=O)N2CC(CCl)c3c2cc(OC(C)=O)c2[nH]cc(C)c32)n(C)c1 (stereo not given) | < 2.5e-05 µM (active) | 4.52e-05 µM (active) | 0.00011 µM (active) | 7.18e-05 µM (active) | 5.01e-05 µM (active) | 2.94e-05 µM (active) | 7.24e-05 µM (active) | < 2.5e-05 µM (active) | 0.000116 µM (active) | 7.66e-05 µM (active) | < 2.5e-05 µM (active) | 5.92e-05 µM (active) | < 2.5e-05 µM (active) | < 2.5e-05 µM (active) | < 2.5e-05 µM (active) | 6.84e-05 µM (active) | 2.96e-05 µM (active) | 0.000363 µM (active) | 3.06e-05 µM (active) | 5.49e-05 µM (active)
6 | COC(=O)C1=C(OC(=O)/C=C/c2ccccc2)C(C(=O)OC)[C@@]2(O)[C@@H](C(=O)OC)[C@H](C)C[C@@H]1[C@@H]2C(=O)OC (stereo not given in full) | 24.1 µM (inactive) | 28.8 µM (inactive) | 26.2 µM (inactive) | 13.9 µM (inactive) | 25.5 µM (inactive) | 19.3 µM (inactive) | 11.7 µM (inactive) | > 100 µM (inactive) | 13.3 µM (inactive) | 15.7 µM (inactive) | 18.2 µM (inactive) | 24.9 µM (inactive) | 26.9 µM (inactive) | 19.8 µM (inactive) | 22.8 µM (inactive) | 17 µM (inactive) | 28.3 µM (inactive) | 34.4 µM (inactive) | > 100 µM (inactive) | 24.7 µM (inactive)
7 | COc1ccc(CC2c3cc(Oc4cc(CC5c6cc(OC)c(OC)cc6CCN5C)ccc4O)c(OC)cc3CCN2C)cc1 (stereo not given) | 2.22 µM (inactive) | 7.8 µM (inactive) | 6.1 µM (inactive) | 8 µM (inactive) | 5.47 µM (inactive) | 5.81 µM (inactive) | 9.44 µM (inactive) | 5.52 µM (inactive) | 7.96 µM (inactive) | 1.48 µM (inactive) | 2.42 µM (inactive) | 8.65 µM (inactive) | 7.6 µM (inactive) | 8.63 µM (inactive) | 7.01 µM (inactive) | 5.25 µM (inactive) | 1.66 µM (inactive) | 3.87 µM (inactive) | 1.36 µM (inactive) | 2.06 µM (inactive)
